Values joined by “and” are separate entries in the source; they are usually repeats but may differ in a detail not shown here. Equal values may be shown once. Toxic doses and inconclusive results are not listed. Starred links: 1 amine or outer side, 2 acyl side, 3 side chain; linkers in the order of their positions; H or OH if unused. Positions of bridges follow the written chain, without caps; N, C: chain ends. Non-standard residues stand in square brackets, D forms with d. Residues, ends and D or L forms follow the SMILES beside them. Chains are numbered I, II in the order given. Actinocin(9to1) = Cc1c2oc3c(C)ccc(C(=O)[*:1])c3nc-2c(C(=O)[*:2])c(N)c1=O; aThr = C[C@H](O)[C@H](N)C(=O)O; NMeV = CN[C@H](C(=O)O)C(C)C; Sar = CNCC(=O)O
Tested on: BDF1 mice, P288 methotrexate-resistant leukemia, survival T/C
Experiment: NCI In Vivo Anticancer Drug Screen. Data for tumor model P288 Lymphocytic Leukemia resistant to methotrexate; NSC 740 (intraperitoneal) in B6D2F1 (BDF1) mice
Conditions: endpoint: median survival time, higher = longer survival
Method: The antitumor activity of compounds was measured in mice bearing transplantable tumors. Survival or tumor size were measured and the results are expressed as the measurement made in the treated group (T) divided by the measurement made in the vehicle treated control group (C). The tumor model used in this assay is P288 Lymphocytic Leukemia resistant to methotrexate; NSC 740 (intraperitoneal) in B6D2F1 (BDF1) mice

[1] = dose: 2.0 mg/kg/injection, schedule: Q01DX010 (ip), vehicle: saline
[2] = dose: 4.0 mg/kg/injection, schedule: Q01DX010 (ip), vehicle: saline
[3] = dose: 8.0 mg/kg/injection, schedule: Q01DX010 (ip), vehicle: saline
[4] = dose: 10.0 mg/kg/injection, schedule: Q01DX010 (ip), vehicle: saline
[5] = dose: 20.0 mg/kg/injection, schedule: Q01DX010 (ip), vehicle: saline
[6] = dose: 40.0 mg/kg/injection, schedule: Q01DX010 (ip), vehicle: saline
[7] = dose: 5.0 mg/kg/injection, schedule: Q01DX010 (ip), vehicle: saline

For `NC(=O)N(CCCl)N=O`, the T/C (dose: 0.5 mg/kg/injection, schedule: Q01DX010 (ip), vehicle: saline) was 210 % of control and 213 % of control, the T/C (dose: 1.0 mg/kg/injection, schedule: Q01DX010 (ip), vehicle: saline) was 300 % of control and the T/C [1] was 168 % of control and 300 % of control. For the same compound, the T/C [2] was 90 % of control.

In the case of `Cc1c2oc3c(C)ccc(C(=O)N[C@@H]4C(=O)N[C@H](C(C)C)C(=O)N5CCC[C@H]5C(=O)N(C)CC(=O)N(C)[C@@H](C(C)C)C(=O)O[C@H]4C)c3nc-2c(C(=O)N[C@@H]2C(=O)N[C@H](C(C)C)C(=O)N3CCC[C@H]3C(=O)N(C)CC(=O)N(C)[C@@H](C(C)C)C(=O)O[C@H]2C)c(N)c1=O` (I: [aThr][dV]P[Sar][NMeV] / II: [aThr][dV]P[Sar][NMeV]; ester I:1-I:C, II:1-II:C; linker I:N-II:N via Actinocin(9to1)), the T/C (dose: 25.0 micrograms/kg/injection, schedule: Q01DX010 (ip), vehicle: other) is reported as 160 % of control and the T/C (dose: 50.0 micrograms/kg/injection, schedule: Q01DX010 (ip), vehicle: other) is reported as 190 % of control.

With `CS(=O)(=O)OCCCCOS(C)(=O)=O` the T/C (dose: 6.25 mg/kg/injection, schedule: Q01DX010 (ip), vehicle: saline) was 87 % of control, the T/C (dose: 12.5 mg/kg/injection, schedule: Q01DX010 (ip), vehicle: saline) was 106 % of control and the T/C (dose: 25.0 mg/kg/injection, schedule: Q01DX010 (ip), vehicle: saline) was 93 % of control. For the same compound, the T/C (dose: 50.0 mg/kg/injection, schedule: Q01DX010 (ip), vehicle: saline) was 87 % of control.

With `C[n+]1c2ccccc2nc2c(N)cc(N)cc21` the T/C [3] was 115 % of control.

`CC1CCOS(=O)O1` (centres undefined) was tested, and the T/C [4] was 91 % of control and 95 % of control, the T/C [5] was 90 % of control and the T/C [6] was 95 % of control. For the same compound, the T/C (dose: 80.0 mg/kg/injection, schedule: Q01DX010 (ip), vehicle: saline) was 90 % of control.

`Nc1nc(=S)c2ncn(C3OC(CO)C(O)C3O)c2[nH]1` (centres undefined) was tested, and the T/C [1] was 90 % of control and 91 % of control and 115 % of control, the T/C [2] was 91 % of control and 96 % of control and 120 % of control and the T/C [3] was 93 % of control. For the same compound, the T/C (dose: 16.0 mg/kg/injection, schedule: Q01DX010 (ip), vehicle: saline) was 90 % of control (2×) and 91 % of control.

In the case of `N#C[C@@H]1C2C=CC(CC2)[C@H]1C#N`, the T/C (dose: 31.0 micrograms/kg/injection, schedule: Q01DX010 (ip), vehicle: saline) is reported as 90 % of control, the T/C (dose: 63.0 micrograms/kg/injection, schedule: Q01DX010 (ip), vehicle: saline) is reported as 118 % of control and the T/C (dose: 125.0 micrograms/kg/injection, schedule: Q01DX010 (ip), vehicle: saline) is reported as 109 % of control. The T/C (dose: 250.0 micrograms/kg/injection, schedule: Q01DX010 (ip), vehicle: saline) was 90 % of control.

In the case of `CN(N=O)C(N)=O`, the T/C [4] is reported as 110 % of control, the T/C [5] is reported as 150 % of control and the T/C [6] is reported as 95 % of control.

With `Cc1cc(N(CCCl)CCCl)ccc1N=Nc1ccccc1C(=O)O` the T/C [7] was 104 % of control and 105 % of control, the T/C [4] was 109 % of control and 110 % of control and the T/C [5] was 115 % of control.

For `c1ccc(CCSc2ncnc3nc[nH]c23)cc1`, the T/C (dose: 15.6 mg/kg/injection, schedule: Q01DX010 (ip), vehicle: saline) was 86 % of control, the T/C (dose: 31.3 mg/kg/injection, schedule: Q01DX010 (ip), vehicle: saline) was 86 % of control and the T/C (dose: 62.5 mg/kg/injection, schedule: Q01DX010 (ip), vehicle: saline) was 100 % of control. The T/C (dose: 500.0 mg/kg/injection, schedule: Q01DX010 (ip), vehicle: saline) was 87 % of control.

For `C[C@H](N)C(=O)N[C@@H]1[C@H]2C(=C(O)C[C@@H](O)[C@@H]2O)C(=O)O[C@@H]1C`, the T/C (dose: 150.0 mg/kg/injection, schedule: Q01DX010 (ip), vehicle: saline) was 112 % of control, the T/C (dose: 600.0 mg/kg/injection, schedule: Q01DX010 (ip), vehicle: saline) was 150 % of control and the T/C (dose: 1200.0 mg/kg/injection, schedule: Q01DX010 (ip), vehicle: saline) was 183 % of control.

`NC(Cc1ccc(N(CCCl)CCCl)cc1)C(=O)O` (centres undefined) was tested, and the T/C (dose: 1.0 mg/kg/injection, schedule: Q01DX010 (ip), vehicle: other) was 160 % of control, the T/C (dose: 2.0 mg/kg/injection, schedule: Q01DX010 (ip), vehicle: other) was 165 % of control and the T/C (dose: 4.0 mg/kg/injection, schedule: Q01DX010 (ip), vehicle: other) was 215 % of control. The T/C [7] was 160 % of control, the T/C [4] was 186 % of control and the T/C [5] was 105 % of control.

In the case of `O=c1[nH]cc(F)c(=O)[nH]1`, the T/C [7] is reported as 108 % of control, the T/C [5] is reported as 159 % of control and the T/C [6] is reported as 91 % of control and 95 % of control.

In the case of `CC/C(=C(/CC)c1ccc(O)cc1)c1ccc(O)cc1`, the T/C (dose: 12.5 mg/kg/injection, schedule: Q01DX010 (sc), vehicle: steriod suspending solution) is reported as 100 % of control and 110 % of control, the T/C (dose: 25.0 mg/kg/injection, schedule: Q01DX010 (sc), vehicle: steriod suspending solution) is reported as 105 % of control and the T/C (dose: 50.0 mg/kg/injection, schedule: Q01DX010 (sc), vehicle: steriod suspending solution) is reported as 100 % of control and 105 % of control. For the same compound, the T/C (dose: 100.0 mg/kg/injection, schedule: Q01DX010 (sc), vehicle: steriod suspending solution) was 90 % of control and 100 % of control.

Source: PubChem BioAssay AID204 (DTP/NCI, 2004)
